Data on 2 compounds can be found in US12133936B2, “Surgical system and methods of use” (priority 2021, dated 2024).

SMILES strings stand for the structures.

One data set deals with myofibroblast formation. As to conditions: Ajmal et al. (2003); cited from earlier work.
The conditions of data set [1]: in vivo. An excerpt:
(§1) However, in some embodiments, however, higher doses of tranexamic acid are used for topical applications to account for tranexamic acid being widely distributed throughout the extracellular and intracellular compartments when given preoperatively.

The subject of another data set is fibrinolysis. Put plainly: prevention / reversal of fibrinolysis. To be noted: one tenth of the doses used in the non-GLP acute porcine study.
From the text: as §1

With `O=S(=O)([O-])CCS.[Na+]` [MESNA, sodium 2-mercaptoethane sulfonate], the myofibroblast formation entry in the data set on myofibroblast formation was “diminish myofibroblast formation”.
For the compound `NC[C@H]1CC[C@H](C(=O)O)CC1` [tranexamic acid, trans-4-(aminomethyl)cyclohexanecarboxylic acid], the “time to reach plasma concentrations” value in data set [1] was 5 to 15 min. In addition, in the data set with fibrinolysis, the reversing fibrinolysis entry is “effective in reversing fibrinolysis”.
